Results taken from patent US20240261271A1, “APPLICATION OF HYDRONIDONE IN PREPARATION OF DRUG FOR TREATING OR PREVENTING CHRONIC HEPATITIS B WITH LIVER FIBROSIS” (priority 2021, published 2024).
Where “and” joins values, the source holds several entries; their conditions need not be identical. Identical values can stand only once.

Test system: chronic hepatitis B with hepatic fibrosis
Assay: Phase II clinical study: hepatic fibrosis Ishak score by liver biopsy, before and after 52 weeks of treatment on entecavir basic treatment
Type: in vivo, human
Settings: for Rate difference (C-D) % and 95% CI, Ishak score decreased by ≥1: 180 mg group minus 270 mg group; for Hepatic fibrosis Ishak score, Mean (SD) / Hepatic fibrosis Ishak score, Median / Ishak score 0 point, n(%) / Ishak score 1 point, n(%) / Ishak score 2 points, n(%) / Ishak score 3 points, n(%) / Ishak score 4 points, n(%) / Ishak score 5 points, n(%) / Ishak score 6 points, n(%) / Progressive Ishak score (increases by ≥1 compared with the baseline) / Reversed Ishak score (decreases by ≥1 point compared with the baseline) / Stable Ishak score (unchanged compared with the baseline): 52 weeks of treatment
Procedure: This is a randomized, double-blind, placebo-controlled, multicenter, and dose-finding phase II clinical study with foundational treatment. In the clinical trial, three different dose test groups and a placebo control group were set on the basis of the entecavir capsule antiviral treatment, and the planned sample amount of each group was 60 cases, totaling 240 cases. The three dose test groups were 180 mg group, 270 mg group, and 360 mg group, respectively. […]

[1] = 180 mg group, FAS, 52 weeks of treatment vs baseline, all subjects
[2] = 180 mg group, FAS, all subjects
[3] = 180 mg group, FAS, baseline Ishak score ≥3
[4] = 180 mg group, FAS, screening period-follow-up 15 (52 weeks), baseline Ishak score ≥3
[5] = 180 mg group, PPS, 52 weeks of treatment vs baseline, all subjects
[6] = 180 mg group, PPS, all subjects
[7] = 180 mg group, PPS, baseline Ishak score ≥3
[8] = 180 mg group, PPS, screening period-follow-up 15 (52 weeks), baseline Ishak score ≥3
[9] = 270 mg group, FAS, 52 weeks of treatment vs baseline, all subjects
[10] = 270 mg group, FAS, all subjects
[11] = 270 mg group, FAS, baseline Ishak score ≥3
[12] = 270 mg group, FAS, screening period-follow-up 15 (52 weeks), baseline Ishak score ≥3
[13] = 270 mg group, PPS, 52 weeks of treatment vs baseline, all subjects
[14] = 270 mg group, PPS, all subjects
[15] = 270 mg group, PPS, baseline Ishak score ≥3

Cc1ccc(=O)n(-c2ccc(O)cc2)c1 [hydronidone] was tested, and the “Rate difference (C-D) % and 95% CI, Ishak score decreased by ≥1” value (FAS, 52 weeks, all subjects) was −15.62(−35.03, 5.65) %, the “Rate difference (C-D) % and 95% CI, Ishak score decreased by ≥1” value (FAS, 52 weeks, baseline Ishak score ≥3) was −10.12(−34.40, 15.62) % and the “Rate difference (C-D) % and 95% CI, Ishak score decreased by ≥1” value (PPS, 52 weeks, all subjects) was −18.49(−38.82, 4.38) %. The “Rate difference (C-D) % and 95% CI, Ishak score decreased by ≥1” value (PPS, 52 weeks, baseline Ishak score ≥3) was −12.91(−37.46, 13.45) %, the “Ishak score decreased by <1, n(%)” value [1] was 25(59.52) n(%) and the “Ishak score decreased by ≥1, n(%)” value [1] was 17 (40.48%) n(%) and 17(40.48) n(%). For the same compound, the “Hepatic fibrosis Ishak score, Mean (SD)” value [2] was 2.71(1.88), the “Hepatic fibrosis Ishak score, Median” value [2] was 2.00 and the “Ishak score 0 point, n(%)” value [2] was 3(7.14) n(%). For the same compound, the “Ishak score 1 point, n(%)” value [2] was 12(28.57) n(%), the “Ishak score 2 points, n(%)” value [2] was 8(19.05) n(%) and the “Ishak score 3 points, n(%)” value [2] was 4(9.52) n(%). For the same compound, the “Ishak score 4 points, n(%)” value [2] was 5(11.90) n(%), the “Ishak score 5 points, n(%)” value [2] was 6(14.29) n(%) and the “Ishak score 6 points, n(%)” value [2] was 4(9.52) n(%). For the same compound, the “Progressive Ishak score (increases by ≥1 compared with the baseline)” value [2] was 7 (16.67%) n(%) and 7(16.67) n(%), the “Reversed Ishak score (decreases by ≥1 point compared with the baseline)” value [2] was 17(40.48) n(%) and the “Stable Ishak score (unchanged compared with the baseline)” value [2] was 18 (42.86%) n(%) and 18(42.86) n(%). For the same compound, the “Ishak score 0 point, n(%)” value [3] was 1(4.17) n(%), the “Ishak score 1 point, n(%)” value [3] was 4(16.67) n(%) and the “Ishak score 2 points, n(%)” value [3] was 1(4.17) n(%). The “Ishak score 3 points, n(%)” value [3] was 3(12.50) n(%), the “Ishak score 4 points, n(%)” value [3] was 5(20.83) n(%) and the “Ishak score 5 points, n(%)” value [3] was 6(25.00) n(%). For the same compound, the “Ishak score 6 points, n(%)” value [3] was 4(16.67) n(%), the “Ishak score change, Baseline-52 weeks of treatment, Mean (SD)” value (from here on “Ishak score change … (SD)”) [2] was 0.43(1.25) and the “Ishak score change, Baseline-52 weeks of treatment, Median” value (from here on “Ishak score change … Median”) [2] was 0.00. The “Ishak score decreased by <1, n(%)” value [4] was 11(45.83) n(%), the “Ishak score decreased by ≥1, n(%)” value [4] was 13(54.17) n(%) and the “Ishak score decreased by <1, n(%)” value [5] was 19(52.78) n(%). The “Ishak score decreased by ≥1, n(%)” value [5] was 17 (47.22%) n(%) and 17(47.22) n(%), the “Hepatic fibrosis Ishak score, Mean (SD)” value [6] was 2.67(1.88) and the “Hepatic fibrosis Ishak score, Median” value [6] was 2.00. The “Ishak score 0 point, n(%)” value [6] was 3(8.33) n(%), the “Ishak score 1 point, n(%)” value [6] was 11(30.56) n(%) and the “Ishak score 2 points, n(%)” value [6] was 5(13.89) n(%). The “Ishak score 3 points, n(%)” value [6] was 4(11.11) n(%), the “Ishak score 4 points, n(%)” value [6] was 5(13.89) n(%) and the “Ishak score 5 points, n(%)” value [6] was 5(13.89) n(%). For the same compound, the “Ishak score 6 points, n(%)” value [6] was 3(8.33) n(%), the “Progressive Ishak score (increases by ≥1 compared with the baseline)” value [6] was 7 (19.44%) n(%) and 7(19.44) n(%) and the “Reversed Ishak score (decreases by ≥1 point compared with the baseline)” value [6] was 17(47.22) n(%). The “Stable Ishak score (unchanged compared with the baseline)” value [6] was 12 (33.33%) n(%) and 12(33.33) n(%), the “Ishak score 0 point, n(%)” value [7] was 1(4.55) n(%) and the “Ishak score 1 point, n(%)” value [7] was 4(18.18) n(%). The “Ishak score 2 points, n(%)” value [7] was 1(4.55) n(%), the “Ishak score 3 points, n(%)” value [7] was 3(13.64) n(%) and the “Ishak score 4 points, n(%)” value [7] was 5(22.73) n(%). For the same compound, the “Ishak score 5 points, n(%)” value [7] was 5(22.73) n(%), the “Ishak score 6 points, n(%)” value [7] was 3(13.64) n(%) and the “Ishak score change … (SD)” value [6] was 0.50(1.34). For the same compound, the “Ishak score change … Median” value [6] was 0.00, the “Ishak score decreased by <1, n(%)” value [8] was 9(40.91) n(%) and the “Ishak score decreased by ≥1, n(%)” value [8] was 13(59.09) n(%). The “Ishak score decreased by ≥1, n(%)” value (270 mg group + 360 mg group, FAS, 52 weeks, baseline Ishak score = 6 (cirrhosis)) was 9(90.00) n(%), the “Ishak score decreased by ≥1, n(%)” value (270 mg group + 360 mg group, FAS, 52 weeks, baseline Ishak score ≥3 (significant fibrosis)) was 35(61.40) n(%) and the “Ishak score decreased by ≥1, n(%)” value (270 mg group + 360 mg group, FAS, 52 weeks, baseline Ishak score ≥4 (progressive fibrosis)) was 22(64.71) n(%). For the same compound, the “Ishak score decreased by ≥1, n(%)” value (270 mg group + 360 mg group, FAS, 52 weeks, baseline Ishak score ≥5 (early cirrhosis)) was 17(65.38) n(%), the “Ishak score decreased by ≥1, n(%)” value (270 mg group + 360 mg group, PPS, 52 weeks, baseline Ishak score = 6 (cirrhosis)) was 9(90.00) n(%) and the “Ishak score decreased by ≥1, n(%)” value (270 mg group + 360 mg group, PPS, 52 weeks, baseline Ishak score ≥3 (significant fibrosis)) was 35(70.00) n(%). The “Ishak score decreased by ≥1, n(%)” value (270 mg group + 360 mg group, PPS, 52 weeks, baseline Ishak score ≥4 (progressive fibrosis)) was 22(70.97) n(%), the “Ishak score decreased by ≥1, n(%)” value (270 mg group + 360 mg group, PPS, 52 weeks, baseline Ishak score ≥5 (early cirrhosis)) was 17(70.83) n(%) and the “Ishak score decreased by <1, n(%)” value [9] was 18(43.90) n(%). For the same compound, the “Ishak score decreased by ≥1, n(%)” value [9] was 23 (56.10%) n(%) and 23(56.10) n(%), the “Hepatic fibrosis Ishak score, Mean (SD)” value [10] was 2.64(1.74) and the “Hepatic fibrosis Ishak score, Median” value [10] was 2.00. The “Ishak score 0 point, n(%)” value [10] was 2(5.13) n(%), the “Ishak score 1 point, n(%)” value [10] was 12(30.77) n(%) and the “Ishak score 2 points, n(%)” value [10] was 7(17.95) n(%). For the same compound, the “Ishak score 3 points, n(%)” value [10] was 5(12.82) n(%), the “Ishak score 4 points, n(%)” value [10] was 5(12.82) n(%) and the “Ishak score 5 points, n(%)” value [10] was 6(15.38) n(%). The “Ishak score 6 points, n(%)” value [10] was 2(5.13) n(%), the “Progressive Ishak score (increases by ≥1 compared with the baseline)” value [10] was 4 (9.76%) n(%) and 4(9.76) n(%) and the “Reversed Ishak score (decreases by ≥1 point compared with the baseline)” value [10] was 23(56.10) n(%). For the same compound, the “Stable Ishak score (unchanged compared with the baseline)” value [10] was 14 (34.15%) n(%) and 14(34.15) n(%), the “Ishak score 0 point, n(%)” value [11] was 2(7.14) n(%) and the “Ishak score 1 point, n(%)” value [11] was 4(14.29) n(%). The “Ishak score 2 points, n(%)” value [11] was 4(14.29) n(%), the “Ishak score 3 points, n(%)” value [11] was 5(17.86) n(%) and the “Ishak score 4 points, n(%)” value [11] was 5(17.86) n(%). The “Ishak score 5 points, n(%)” value [11] was 6(21.43) n(%), the “Ishak score 6 points, n(%)” value [11] was 2(7.14) n(%) and the “Ishak score change … (SD)” value [10] was 0.78(1.11). The “Ishak score change … Median” value [10] was 1.00, the “Ishak score decreased by <1, n(%)” value [12] was 10(35.71) n(%) and the “Ishak score decreased by ≥1, n(%)” value [12] was 18(64.29) n(%). For the same compound, the “Ishak score decreased by <1, n(%)” value [13] was 12(34.29) n(%), the “Ishak score decreased by ≥1, n(%)” value [13] was 23 (65.71%) n(%) and 23(65.71) n(%) and the “Hepatic fibrosis Ishak score, Mean (SD)” value [14] was 2.60(1.77). For the same compound, the “Hepatic fibrosis Ishak score, Median” value [14] was 2.00, the “Ishak score 0 point, n(%)” value [14] was 2(5.71) n(%) and the “Ishak score 1 point, n(%)” value [14] was 11(31.43) n(%). For the same compound, the “Ishak score 2 points, n(%)” value [14] was 7(20.00) n(%), the “Ishak score 3 points, n(%)” value [14] was 3(8.57) n(%) and the “Ishak score 4 points, n(%)” value [14] was 5(14.29) n(%). The “Ishak score 5 points, n(%)” value [14] was 5(14.29) n(%), the “Ishak score 6 points, n(%)” value [14] was 2(5.71) n(%) and the “Progressive Ishak score (increases by ≥1 compared with the baseline)” value [14] was 4 (11.43%) n(%) and 4(11.43) n(%). For the same compound, the “Reversed Ishak score (decreases by ≥1 point compared with the baseline)” value [14] was 23(65.71) n(%), the “Stable Ishak score (unchanged compared with the baseline)” value [14] was 8 (22.86%) n(%) and 8(22.86) n(%) and the “Ishak score 0 point, n(%)” value [15] was 2(8.00) n(%). The “Ishak score 1 point, n(%)” value [15] was 4(16.00) n(%), the “Ishak score 2 points, n(%)” value [15] was 4(16.00) n(%) and the “Ishak score 3 points, n(%)” value [15] was 3(12.00) n(%).
